Data published in publication PMC2933276 (Nature structural & molecular biology, 2010).

Assays:
[1] = molecular target: T1, S. pombe Dcp2 regulatory domain (residues 1-94) (Schizosaccharomyces pombe, UniProt O13828); experiment: […]-HSQC NMR titration; format: binding
T1 sequence (O13828 1-94): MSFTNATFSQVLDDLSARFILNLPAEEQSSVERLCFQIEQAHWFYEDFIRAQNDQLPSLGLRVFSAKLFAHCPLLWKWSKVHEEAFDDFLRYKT

[2] = molecular target: T2, S. pombe Dcp2 catalytic domain (residues 95-243) (Schizosaccharomyces pombe, UniProt O13828); experiment: […]-HSQC NMR titration; format: binding
T2 sequence (O13828 95-243): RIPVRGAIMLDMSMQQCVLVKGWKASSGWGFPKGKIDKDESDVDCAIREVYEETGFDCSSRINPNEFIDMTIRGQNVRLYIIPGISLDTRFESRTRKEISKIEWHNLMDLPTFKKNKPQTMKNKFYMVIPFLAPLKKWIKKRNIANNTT

[3] = molecular target: T3, S. pombe Dcp1-Dcp2 complex (Dcp2 1-243, Dcp1 1-127; D1D2) (Schizosaccharomyces pombe, UniProt O13828); experiment: SAXS, ligand-induced compaction; format: binding; conditions: 10 mM m7GpppA; pH 7.0, 150 mM NaCl, 50 mM HEPES, 2 mM DTT
T3 sequence (O13828 1-243): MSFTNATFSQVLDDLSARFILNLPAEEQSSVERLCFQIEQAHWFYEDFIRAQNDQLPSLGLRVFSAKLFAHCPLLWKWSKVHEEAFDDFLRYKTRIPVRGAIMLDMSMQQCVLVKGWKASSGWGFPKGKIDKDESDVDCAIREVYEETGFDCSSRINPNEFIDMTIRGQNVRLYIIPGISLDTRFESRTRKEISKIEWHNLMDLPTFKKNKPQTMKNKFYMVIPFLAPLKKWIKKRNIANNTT
T3 sequence (Q9P805 1-127 partner): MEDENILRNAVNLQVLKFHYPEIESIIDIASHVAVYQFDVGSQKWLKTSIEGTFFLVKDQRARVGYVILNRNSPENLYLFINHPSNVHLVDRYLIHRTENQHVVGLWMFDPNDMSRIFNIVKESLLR

[4] = molecular target: S. pombe Dcp2 1–243 W43A (S. pombe, UniProt O13828 1-243, W43A); experiment: SEC
[5] = molecular target: S. pombe Dcp2 1–243 R167Q (S. pombe, UniProt O13828 1-243, R167Q); experiment: SEC
[6] = molecular target: T4, S. pombe Dcp2 (spDcp2) 1–243 (S. pombe, UniProt O13828 1-243); experiment: SEC
T4 sequence: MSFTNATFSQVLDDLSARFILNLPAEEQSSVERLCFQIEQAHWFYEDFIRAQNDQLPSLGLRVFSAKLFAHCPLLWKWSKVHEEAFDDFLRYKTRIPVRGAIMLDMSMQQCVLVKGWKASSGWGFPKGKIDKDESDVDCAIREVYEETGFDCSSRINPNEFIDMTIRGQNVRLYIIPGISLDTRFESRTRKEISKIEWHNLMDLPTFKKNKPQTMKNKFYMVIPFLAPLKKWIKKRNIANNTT

With `Nc1nc2c(ncn2[C@@H]2O[C@H](COP(=O)(O)OP(=O)(O)O)[C@@H](O)[C@H]2O)c(=O)[nH]1` [GDP] the Kd [1] was about 40 mM.

`C[n+]1cn([C@@H]2O[C@H](COP(=O)(O)OP(=O)(O)O)[C@@H](O)[C@H]2O)c2nc(N)[nH]c(=O)c21` [m^7GDP] showed a Kd [2] of 12 mM and a Kd [1] of about 12 mM.

For `C[n+]1cn([C@@H]2O[C@H](COP(=O)(O)OP(=O)(O)OP(=O)(O)OC[C@H]3O[C@@H](n4cnc5c(N)ncnc54)[C@H](O)[C@@H]3O)[C@@H](O)[C@H]2O)c2nc(N)[nH]c(=O)c21` [m^7GpppA], the “SAXS, ligand-induced compaction” value [3] was “reveals a compaction in the presence of cap-analog m^7GpppA that is small but reproducible”.

B1: S. pombe Dcp1 1–127 (natural protein)
chain: MEDENILRNAVNLQVLKFHYPEIESIIDIASHVAVYQFDVGSQKWLKTSIEGTFFLVKDQRARVGYVILNRNSPENLYLFINHPSNVHLVDRYLIHRTENQHVVGLWMFDPNDMSRIFNIVKESLLR
B1: binds [4]; binds [5]; binds [6].
